# Marks after values point to notes of the source that are not given here.
# Key:
# enzyme of SEQ ID NO:3 [1] = assay: Reduction of cyclic imine substrates; type: biochemical, Microbacterium sp. MA1
# enzyme of SEQ ID NO:1 [2] = assay: Reduction of cyclic imine substrates; type: biochemical, Mycobacterium smegmatis
# enzyme of SEQ ID NO:2 [3] = assay: Reduction of cyclic imine substrates; type: biochemical, Cystobacter fuscus DSM 2262
# enzyme of SEQ ID NO:4 [4] = assay: Reduction of cyclic imine substrates; type: biochemical, Aminomonas paucivorans DSM 12260
# PheDH-AmDH K77S/N276L = PheDH-AmDH K77S/N276L (Pseudobacillus badius, UniProt Q59224, K78S/N277L); details: prior-art engineered enzyme; cited from earlier work
# enzyme of SEQ ID NO:1 [5] = assay: Screening of carbonyl-containing compounds with ammonia as amine source (specific activity, absorbance at 340 nm); type: biochemical, Mycobacterium smegmatis; details: 10 mM of carbonyl-containing compound, ammonia as amine source
# Protocol: (§1) All the reactions were conducted at 25° C. in spectrophotometric cell (10 mm light path). To a mixture of ammonium formate buffer (2 M NH4HCO2/NH4OH, pH 9.5), NADH or NADPH (0.2 mM) and an appropriate amount of purified enzyme was added.
# enzyme of SEQ ID NO:2 [6] = assay: as above; type: biochemical, Cystobacter fuscus DSM 2262; details: 10 mM of carbonyl-containing compound, ammonia as amine source
# Protocol: as §1
# enzyme of SEQ ID NO:3 [7] = assay: as above; type: biochemical, Microbacterium sp. MA1; details: 10 mM of carbonyl-containing compound, ammonia as amine source
# Protocol: as §1
# enzyme of SEQ ID NO:2 [8] = assay: Screening of carbonyl-containing compounds with methylamine as amine source; type: biochemical, Cystobacter fuscus DSM 2262; details: preliminary
# Protocol: (§2) All the reactions were conducted at 25° C. in spectrophotometric cell (10 mm light path). To a mixture of TRIS.HCl buffer (50 mM, pH 9.5), NADH and NADPH (0.1 mM each), methylamine (500 mM) and an appropriate amount of purified enzyme was added. Carbonyl-containing compound (5 mM) is then added to initiate the reaction (reaction final volume 100 μL). The initial slope measured at 340 nm determined the specific activity of the enzyme according to Beer-Lambert's law and the molar absorptivity of β-NADH (ϵ=6298 M^−1 cm^−1).
# enzyme of SEQ ID NO:3 [9] = assay: as above; type: biochemical, Microbacterium sp. MA1; details: preliminary; for Specific activity, SEQ ID NO: 3: methylamine (500 mM) as amine source, NADH/NADPH (0.1 mM each), carbonyl-containing compound 5 mM; for activity of enzyme of SEQ ID NO:3 on the substrate with methylamine (in words): methylamine as amine source
# Protocol: as §2
# enzyme of SEQ ID NO:1 [10] = assay: as above; type: biochemical, Mycobacterium smegmatis; details: preliminary; for Specific activity, SEQ ID NO: 1: methylamine (500 mM) as amine source, NADH/NADPH (0.1 mM each), carbonyl-containing compound 5 mM; for activity of enzyme of SEQ ID NO:1 on the substrate with methylamine (in words): methylamine as amine source
# Protocol: as §2
# enzyme of SEQ ID NO:4 [11] = assay: as above; type: biochemical, Aminomonas paucivorans DSM 12260; details: preliminary
# Protocol: as §2
# enzyme of SEQ ID NO:5 [12] = assay: as above; type: biochemical, Mycobacterium vaccae ATCC 25954; details: preliminary; for Specific activity, SEQ ID NO: 5: methylamine (500 mM) as amine source, NADH/NADPH (0.1 mM each), carbonyl-containing compound 5 mM; for activity of enzyme of SEQ ID NO:5 on the substrate with methylamine (in words): methylamine as amine source
# Protocol: as §2
# Cal-AmDH = details: as described in Pushpanath et al.; cited from earlier work
# Bbad-AmDH = details: as described in Pushpanath et al.; cited from earlier work
# enzyme of SEQ ID NO:6 = assay: Screening of carbonyl-containing compounds with ammonia as amine source (specific activity, absorbance at 340 nm); type: biochemical, Mycobacterium sp. GA-2829; details: mixture NADH/NADPH (0.1 mM each), 10 mM of carbonyl-containing compound
# Protocol: (§3) All the reactions were conducted at 25° C. in spectrophotometric cell (10 mm light path). […] Carbonyl-containing compound (5 or 10 mM) is then added to initiate the reaction (reaction final volume 100 μL). The initial slope measured at 340 nm determined the specific activity of the enzyme according to Beer-Lambert's law and the molar absorptivity of β-NADH (ϵ=6298 M^−1 cm^−1).
# enzyme of SEQ ID NO:5 [13] = assay: as above; type: biochemical, Mycobacterium vaccae ATCC 25954; details: mixture NADH/NADPH (0.1 mM each), 5 mM of carbonyl-containing compound
# Protocol: as §3
# [14] = 0.2 mM NADPH (best of NADH/NADPH)
# [15] = 0.2 mM NADH (best of NADH/NADPH)
# [16] = 0.2 mM NADPH (best of NADH/NADPH), listed as drawing 134
# [17] = methylamine (500 mM) as amine source, NADH/NADPH (0.1 mM each), carbonyl-containing compound 5 mM
# [18] = 0.2 mM NADH (best of NADH/NADPH), listed as drawing 150
# [19] = 0.2 mM NADH (best of NADH/NADPH), listed as drawing 130
# PheDH-AmDH K77S/N276L, sequence (Q59224 whole entry K78S/N277L): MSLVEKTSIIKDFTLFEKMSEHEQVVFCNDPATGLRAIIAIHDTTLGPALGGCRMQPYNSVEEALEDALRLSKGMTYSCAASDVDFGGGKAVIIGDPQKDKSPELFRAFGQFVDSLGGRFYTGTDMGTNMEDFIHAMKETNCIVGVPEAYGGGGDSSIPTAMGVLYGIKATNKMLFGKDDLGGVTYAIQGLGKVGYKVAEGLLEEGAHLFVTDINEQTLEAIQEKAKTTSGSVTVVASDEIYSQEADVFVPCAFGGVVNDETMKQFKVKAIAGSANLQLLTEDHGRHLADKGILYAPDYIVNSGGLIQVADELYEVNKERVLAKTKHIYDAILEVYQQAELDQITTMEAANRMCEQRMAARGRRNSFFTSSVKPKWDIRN
compound,measurement,setting,value
CC1=NCCC1,reduction of cyclic imine by enzyme of SEQ ID NO:3 (in words),enzyme of SEQ ID NO:3 [1],able to catalyze
same,reduction of cyclic imine by enzyme of SEQ ID NO:1 (in words),enzyme of SEQ ID NO:1 [2],able to catalyze
same,reduction of cyclic imine by enzyme of SEQ ID NO:2 (in words),enzyme of SEQ ID NO:2 [3],able to catalyze
same,reduction of cyclic imine by enzyme of SEQ ID NO:4 (in words),enzyme of SEQ ID NO:4 [4],able to catalyze
CC1CCCCC1=O (racemic) [2-methylcyclohexanone],specific activity of PheDH-AmDH K77S/N276L,PheDH-AmDH K77S/N276L,19.3 mU·mg^−1
same,"Specific activity, SEQ ID NO: 1",enzyme of SEQ ID NO:1 [5]; [14],175.3 mU.mg^-1
same,"Specific activity, SEQ ID NO: 1","enzyme of SEQ ID NO:1 [5]; 0.2 mM NADPH (best of NADH/NADPH), listed as drawing 132",175.3^b mU.mg^-1
same,"Specific activity, SEQ ID NO: 2",enzyme of SEQ ID NO:2 [6]; [14],14.8^b mU.mg^-1
same,"Specific activity, SEQ ID NO: 3",enzyme of SEQ ID NO:3 [7]; [15],337.0 mU.mg^-1
same,"Specific activity, SEQ ID NO: 3","enzyme of SEQ ID NO:3 [7]; 0.2 mM NADH (best of NADH/NADPH), listed as drawing 132",337.0a mU.mg^-1
CC1CCCC(=O)C1 (racemic) [3-methylcyclohexanone],specific activity of PheDH-AmDH K77S/N276L,PheDH-AmDH K77S/N276L,41.1 mU·mg^−1
same,"Specific activity, SEQ ID NO: 1",enzyme of SEQ ID NO:1 [5]; [14],160.9 mU.mg^-1
same,"Specific activity, SEQ ID NO: 1",enzyme of SEQ ID NO:1 [5]; [16],160.9^b mU.mg^-1
same,"Specific activity, SEQ ID NO: 2",enzyme of SEQ ID NO:2 [6]; [14],37.0^b mU.mg^-1
same,"Specific activity, SEQ ID NO: 3",enzyme of SEQ ID NO:3 [7]; [14],206.5 mU.mg^-1
same,"Specific activity, SEQ ID NO: 3",enzyme of SEQ ID NO:3 [7]; [16],206.5^b mU.mg^-1
CC(C)C=O [2-methylpropanal],"Specific activity, SEQ ID NO: 2",enzyme of SEQ ID NO:2 [8]; [17],150.2 mU.mg-^1
same,activity of enzyme of SEQ ID NO:2 on the substrate with methylamine (in words),enzyme of SEQ ID NO:2 [8]; methylamine as amine source,active
same,"Specific activity, SEQ ID NO: 1",enzyme of SEQ ID NO:1 [5]; [15],556.5 mU.mg^-1
same,"Specific activity, SEQ ID NO: 1",enzyme of SEQ ID NO:1 [5]; [18],556.5^a mU.mg^-1
same,"Specific activity, SEQ ID NO: 3",enzyme of SEQ ID NO:3 [9],851.3 mU.mg-^1
same,activity of enzyme of SEQ ID NO:3 on the substrate with methylamine (in words),enzyme of SEQ ID NO:3 [9],active
same,"Specific activity, SEQ ID NO: 1",enzyme of SEQ ID NO:1 [10],144.5 mU.mg-^1
same,activity of enzyme of SEQ ID NO:1 on the substrate with methylamine (in words),enzyme of SEQ ID NO:1 [10],active
same,"Specific activity, SEQ ID NO: 4",enzyme of SEQ ID NO:4 [11]; [17],30.3 mU.mg-^1
same,activity of enzyme of SEQ ID NO:4 on the substrate with methylamine (in words),enzyme of SEQ ID NO:4 [11]; methylamine as amine source,active
same,"Specific activity, SEQ ID NO: 2",enzyme of SEQ ID NO:2 [6]; [15],119.2^a mU.mg^-1
same,"Specific activity, SEQ ID NO: 5",enzyme of SEQ ID NO:5 [12],262.6 mU.mg-^1
same,activity of enzyme of SEQ ID NO:5 on the substrate with methylamine (in words),enzyme of SEQ ID NO:5 [12],active
same,"Specific activity, SEQ ID NO: 3",enzyme of SEQ ID NO:3 [7]; [15],541.0 mU.mg^-1
same,"Specific activity, SEQ ID NO: 3",enzyme of SEQ ID NO:3 [7]; [18],541.0^a mU.mg^-1
O=C1CCCCC1 [cyclohexanone],specific activity of PheDH-AmDH K77S/N276L,PheDH-AmDH K77S/N276L,27 mU·mg^−1
same,"Specific activity, SEQ ID NO: 1",enzyme of SEQ ID NO:1 [5]; [15],196.2 mU.mg^-1
same,"Specific activity, SEQ ID NO: 1",enzyme of SEQ ID NO:1 [5]; [19],196.2^a mU.mg^-1
same,"Specific activity, SEQ ID NO: 3",enzyme of SEQ ID NO:3 [9],90.4 mU.mg-^1
same,activity of enzyme of SEQ ID NO:3 on the substrate with methylamine (in words),enzyme of SEQ ID NO:3 [9],active
same,"Specific activity, SEQ ID NO: 1",enzyme of SEQ ID NO:1 [10],10.1 mU.mg-^1
same,activity of enzyme of SEQ ID NO:1 on the substrate with methylamine (in words),enzyme of SEQ ID NO:1 [10],active
same,"Specific activity, SEQ ID NO: 2",enzyme of SEQ ID NO:2 [6]; [15],135.9 mU.mg^-1
same,"Specific activity, SEQ ID NO: 2",enzyme of SEQ ID NO:2 [6]; [19],135.9^a mU.mg^-1
same,"Specific activity, SEQ ID NO: 5",enzyme of SEQ ID NO:5 [12],12.6 mU.mg-^1
same,activity of enzyme of SEQ ID NO:5 on the substrate with methylamine (in words),enzyme of SEQ ID NO:5 [12],active
same,specific activity of Cal-AmDH,Cal-AmDH,12.7 mU·mg^−1
same,specific activity of Bbad-AmDH,Bbad-AmDH,11.3 mU·mg^−1
same,"Specific activity, SEQ ID NO: 3",enzyme of SEQ ID NO:3 [7]; [15],614.5 mU.mg^-1
same,"Specific activity, SEQ ID NO: 3",enzyme of SEQ ID NO:3 [7]; [19],614.5^a mU.mg^-1
O=C1CCCCC1 [drawing 168],"Specific activity, SEQ ID NO: 6",enzyme of SEQ ID NO:6,13.9 mU.mg^-1
same,"Specific activity, SEQ ID NO: 5",enzyme of SEQ ID NO:5 [13],75.6 mU.mg^-1
CCCC(C)=O [drawing 170],"Specific activity, SEQ ID NO: 5",enzyme of SEQ ID NO:5 [13],6.1 mU.mg^-1

# — patent US11118200B2, “Method for preparing amines from aldehydes and ketones by biocatalysis” (COMMISSARIAT A L'ENERGIE ATOMIQUE ET AUX ENERGIES …, priority 2017, dated 2021)
